Test results: ChEMBL document CHEMBL3352577, “A simple and widely applicable hit validation strategy for protein-protein interaction inhibitors based on a quantitative ligand displacement assay” (Bioorg Med Chem Lett, 2014)

What was measured:
[1] = target: T1, Bcl-2-like protein 1 (Homo sapiens, UniProt Q07817); experiment: Displacement of F-bid from human recombinant N-terminal His-tagged Bcl-xL (1 to 209) expressed in Escherichia coli BL21(DE3) after 2 hrs by fluorescence polarization assay
[2] = target: T2, Induced myeloid leukemia cell differentiation protein Mcl-1 (Homo sapiens, UniProt Q07820); experiment: Displacement of F-bid from human recombinant N-terminal His-tagged Mcl-1 (1 to 319) expressed in Escherichia coli BL21(DE3) after 120 mins by TR-FRET assay
T2 sequence (Q07820 whole entry): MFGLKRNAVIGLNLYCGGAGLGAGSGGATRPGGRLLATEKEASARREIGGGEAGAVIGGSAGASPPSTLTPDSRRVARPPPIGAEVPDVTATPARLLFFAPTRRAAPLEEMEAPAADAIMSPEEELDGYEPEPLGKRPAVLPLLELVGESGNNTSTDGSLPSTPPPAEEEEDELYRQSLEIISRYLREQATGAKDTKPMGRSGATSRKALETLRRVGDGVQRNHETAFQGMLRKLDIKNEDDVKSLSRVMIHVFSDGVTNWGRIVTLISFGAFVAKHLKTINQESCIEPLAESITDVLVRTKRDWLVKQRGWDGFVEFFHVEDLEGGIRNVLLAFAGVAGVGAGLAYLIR

[3] = target: T1, Bcl-2-like protein 1; experiment: Displacement of F-bid from human recombinant N-terminal His-tagged Bcl-xL (1 to 209) expressed in Escherichia coli BL21(DE3) after 120 mins by TR-FRET assay
[4] = target: T1, Bcl-2-like protein 1; experiment: Displacement of F-bid from human recombinant N-terminal His-tagged Bcl-xL (1 to 209) expressed in Escherichia coli BL21(DE3) after 30 mins by TR-FRET assay
[5] = target: T2, Induced myeloid leukemia cell differentiation protein Mcl-1; experiment: Displacement of F-bid from human recombinant N-terminal His-tagged Mcl-1 (1 to 319) expressed in Escherichia coli BL21(DE3) after 2 hrs by fluorescence polarization assay
[6] = target: T1, Bcl-2-like protein 1; experiment: Reversible inhibition of human recombinant N-terminal His-tagged Bcl-xL (1 to 209) expressed in Escherichia coli BL21(DE3) after 30 to 120 mins by TR-FRET assay in presence of F-bid

T1 sequence (Q07817 whole entry): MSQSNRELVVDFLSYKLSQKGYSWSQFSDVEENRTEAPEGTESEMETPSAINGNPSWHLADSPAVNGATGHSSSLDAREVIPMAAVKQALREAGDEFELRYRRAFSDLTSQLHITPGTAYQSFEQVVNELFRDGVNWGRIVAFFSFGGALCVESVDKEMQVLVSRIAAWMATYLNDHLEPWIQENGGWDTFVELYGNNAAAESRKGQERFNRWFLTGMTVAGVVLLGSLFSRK

Structure (SMILES): O=C(CC(Sc1ccc(Cl)cc1)C(=O)O)c1ccc(C2CCCCC2)cc1 (centres undefined)
- Ki [1]: 4.7 µM
- Ki [2]: 12 µM
- IC50 [3]: 19 µM
- Ki [3]: 12 µM
- IC50 [4]: 18 µM
- Ki [5]: 14 µM
- Ki [6]: 13 µM

Structure (SMILES): O=C(CC(Cc1ccc(Cl)cc1)C(=O)O)c1ccc(C2CCCCC2)cc1 (centres undefined)
- Ki [2]: 20 µM
- Ki [6]: 9 µM
